# According to paper PMC5298231, “The Malaria Parasite's Lactate Transporter PfFNT Is the Target of Antiplasmodial Compounds Identified in Whole Cell Phenotypic Screens” (PLoS Pathogens, 2017):
# Experiments:
# [1] = target: T1, native PfFNT (Plasmodium falciparum, UniProt O77389); format: cell-based; settings: native PfFNT in Xenopus oocytes; pH 6.4, 27.5°C, 10 min; mean ± SEM, n = 4; read-out: IC50, inhibition of PfFNT-mediated L-[14C]lactate transport
# T1 construct: expressed in transfected cells; host or cells: Xenopus laevis oocytes (cRNA microinjected, 30 ng)
# Description: (§1) The PfFNT-mediated uptake of L-[^14C]lactate by oocytes expressing native PfFNT (black symbols) or oocytes expressing PfFNT^Gly107Ser (white symbols) was measured in the presence of a range of different concentrations of MMV007839 (A) and MMV000972 (B). […] To enable a visual comparison between the native PfFNT and PfFNT^Gly107Ser datasets, only part of the concentration range used for the latter is shown in the main panels. The insets show the data obtained for PfFNT^Gly107Ser over the full concentration range tested. In all cases, the data are averaged from four independent experiments (using oocytes from different frogs) and are shown ± SEM. The uptake was measured at 27.5°C over 10 min at pH 6.4 using 2.7 μM L-[^14C]lactate and 600 μM unlabelled L-lactate.
# (§2) The oocyte expression vectors containing PfFNT, PfENT1 and PfCRT were made previously. […] The uptake of radiolabelled substrates was measured 2–5 days post-injection at 27.5°C in ND96 buffer (containing 96 mM NaCl, 2 mM KCl, 1 mM MgCl2, 1.8 mM CaCl2, 10 mM MES and 10 mM Tris-base; pH-adjusted to the value specified in the relevant Figure legends). […] The oocytes were then transferred to separate wells of a 96-well plate, lysed with 10% SDS, and the radioactivity measured as described previously.
# [2] = test system: 3D7 parasites; settings: ref http://www.mmv.org/research-development/malaria-box-supporting-information; read-out: IC50 against 3D7 parasites, other groups; cited from earlier work
# [3] = test system: PfENT1; assay: [3H]hypoxanthine uptake by Xenopus oocytes expressing PfENT1; format: cell-based, Plasmodium falciparum
# Excerpt: (§3) (PfCRT; from the chloroquine-resistant Dd2 strain) and on [^3H]hypoxanthine transport by oocytes expressing the P. falciparum equilibrative nucleoside/nucleobase transporter PfENT1 [27, 28].
# The oocyte expression vectors containing PfFNT, PfENT1 and PfCRT were made previously. The Gly107Ser mutant form of PfFNT was generated through site-directed mutagenesis of the oocyte expression vector containing wild-type (3D7) PfFNT using primers 9 and 10 (S2 Table). Oocytes were harvested from adult female Xenopus laevis frogs and prepared as described previously. cRNA was made using the mMessage mMachine T7 transcription kit and the MEGAclear kit (Ambion) and microinjected into oocytes as outlined elsewhere. The amount of cRNA injected (per oocyte) was 30 ng for PfFNT, 10 ng for PfENT1, and 20 ng for PfCRT. The uptake of radiolabelled substrates was measured 2–5 days post-injection at 27.5°C in ND96 buffer (containing 96 mM NaCl, 2 mM KCl, 1 mM MgCl2, 1.8 mM CaCl2, 10 mM MES and 10 mM Tris-base; pH-adjusted to the value specified in the relevant Figure legends). […] Each experiment used ten oocytes for each condition tested. The influx of the radiolabelled substrate was halted by removing the reaction buffer and washing the oocytes twice in ice-cold ND96 buffer (3.5 mL). The oocytes were then transferred to separate wells of a 96-well plate, lysed with 10% SDS, and the radioactivity measured as described previously.
# The data are averaged from four to five independent experiments (performed using oocytes from different frogs) and are shown + SEM. In B, the uptake of [^3H]hypoxanthine (0.36 μM) was measured over 30 min at pH 6.0. […] The data are averaged from three to six independent experiments (performed using oocytes from different frogs) and are shown + SEM. […] (TIF) Click here for additional data file.
# [4] = test system: PfFNT^Gly107Ser mutant parasites (MMV007839-selected culture B); assay: L-[14C]lactate uptake by isolated PfFNT Gly107Ser mutant parasites; settings: read-out: IC50, inhibition of L-[14C]lactate transport, pH 6.1, 4°C, 20 s, mean ± SEM
# [5] = test system: PfCRT (from the chloroquine-resistant Dd2 strain); assay: [3H]chloroquine uptake by Xenopus oocytes expressing PfCRT; format: cell-based, Plasmodium falciparum; settings: 1 μM and 4 μM; pH 5.5
# Excerpt: as §3
# The oocyte expression vectors containing PfFNT, PfENT1 and PfCRT were made previously. The Gly107Ser mutant form of PfFNT was generated through site-directed mutagenesis of the oocyte expression vector containing wild-type (3D7) PfFNT using primers 9 and 10 (S2 Table). Oocytes were harvested from adult female Xenopus laevis frogs and prepared as described previously. cRNA was made using the mMessage mMachine T7 transcription kit and the MEGAclear kit (Ambion) and microinjected into oocytes as outlined elsewhere. […] The uptake of radiolabelled substrates was measured 2–5 days post-injection at 27.5°C in ND96 buffer (containing 96 mM NaCl, 2 mM KCl, 1 mM MgCl2, 1.8 mM CaCl2, 10 mM MES and 10 mM Tris-base; pH-adjusted to the value specified in the relevant Figure legends). […] The oocytes were then transferred to separate wells of a 96-well plate, lysed with 10% SDS, and the radioactivity measured as described previously.
# The data are averaged from four to five independent experiments (performed using oocytes from different frogs) and are shown + SEM. In B, the uptake of [^3H]hypoxanthine (0.36 μM) was measured over 30 min at pH 6.0. […]
# [6] = ref [36]; cited from earlier work
# [7] = test system: Dd2 parental parasites; assay: L-[14C]lactate uptake by isolated Dd2 parental parasites; settings: read-out: IC50, inhibition of L-[14C]lactate uptake; Dd2 (parental) parasites; pH 6.1, 4°C, 20 s; mean ± SEM
# [8] = test system: non-injected oocytes; format: cell-based, Xenopus laevis; settings: full range of inhibitor concentrations
# [9] = test system: isolated 3D7 P. falciparum trophozoites; assay: L-[14C]lactate uptake by isolated 3D7 trophozoites; settings: pH 6.1, 4°C, 20 s
# [10] = target: T2, PfFNT^Gly107Ser (Plasmodium falciparum, UniProt O77389, G107S); assay: PfFNT-mediated L-[14C]lactate uptake by Xenopus oocytes expressing PfFNT Gly107Ser; format: cell-based; settings: PfFNT Gly107Ser in Xenopus oocytes; pH 6.4, 27.5°C, 10 min; mean ± SEM, n = 4; read-out: IC50, inhibition of PfFNT-mediated L-[14C]lactate transport
# T2 construct: expressed in transfected cells; host or cells: Xenopus laevis oocytes (cRNA microinjected, 30 ng)
# T2 sequence (O77389 1-309 G107S): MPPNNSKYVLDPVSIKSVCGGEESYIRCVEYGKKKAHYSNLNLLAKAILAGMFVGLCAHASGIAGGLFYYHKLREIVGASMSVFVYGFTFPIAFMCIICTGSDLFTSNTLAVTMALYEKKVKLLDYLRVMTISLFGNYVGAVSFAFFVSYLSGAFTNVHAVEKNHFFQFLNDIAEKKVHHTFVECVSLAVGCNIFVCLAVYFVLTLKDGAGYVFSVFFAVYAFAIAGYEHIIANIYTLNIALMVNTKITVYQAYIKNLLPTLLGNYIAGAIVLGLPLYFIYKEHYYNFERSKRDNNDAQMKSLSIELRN
# Description: as §1, §2
# [11] = test system: MMV007839-selected culture B (PfFNT Gly107Ser); assay: Parasite proliferation assay, MMV007839-selected culture B; format: cell-based, Plasmodium falciparum; settings: MMV007839-selected culture B; mean ± SEM; read-out: IC50 value, growth inhibition
# Description: (§4) Parasite proliferation was measured in 96-well plates using a fluorescent DNA-intercalating dye. The assays were initiated with erythrocytes infected with predominantly ring-stage parasites, and the starting parasitaemia was 0.5–1% and the haematocrit was 1%.
# (§5) For MMV007839-selected culture A, the drug concentration was increased by 5 nM increments on Day 18, Day 21, and every two days thereafter. […] The cultures were provided with fresh medium and blood and diluted to reduce the parasitaemia as needed.
# [12] = test system: 3D7 P. falciparum trophozoites; assay: Cytosolic pH (pHcyt) measurement in BCECF-loaded saponin-isolated trophozoites
# [13] = test system: MMV007839-selected culture A (PfFNT Gly107Ser); assay: Parasite proliferation assay, MMV007839-selected culture A; format: cell-based, Plasmodium falciparum
# Description: as §4, §5
# [14] = test system: Dd2 parent parasites; assay: Parasite proliferation assay, Dd2 parent; format: cell-based, Plasmodium falciparum; settings: Dd2 parent; mean ± SEM; read-out: IC50 value, growth inhibition
# Description: Parasite proliferation was measured in 96-well plates using a fluorescent DNA-intercalating dye [45]. The assays were initiated with erythrocytes infected with predominantly ring-stage parasites, and the starting parasitaemia was 0.5–1% and the haematocrit was 1%.
# T1 sequence (O77389 whole entry): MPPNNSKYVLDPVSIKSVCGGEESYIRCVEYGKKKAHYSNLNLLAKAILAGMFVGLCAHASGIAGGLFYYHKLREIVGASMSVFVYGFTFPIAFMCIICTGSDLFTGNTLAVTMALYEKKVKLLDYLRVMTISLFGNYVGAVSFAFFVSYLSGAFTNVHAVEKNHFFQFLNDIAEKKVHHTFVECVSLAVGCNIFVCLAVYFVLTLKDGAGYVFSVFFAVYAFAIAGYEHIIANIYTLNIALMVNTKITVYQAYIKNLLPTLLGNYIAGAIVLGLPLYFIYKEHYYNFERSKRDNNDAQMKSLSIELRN
structure (smiles),measurement,setting,value
O=C1CC(O)(C(F)(F)C(F)(F)F)Oc2ccccc21 (stereo not drawn) [MMV000972],IC50,[1],0.05 ± 0.001 µM
same,IC50,[2],2.6 µM
same,Inhibition of [3H]hypoxanthine uptake by PfENT1-expressing oocytes,"[3]; 1 μM and 4 μM, pH 6.0, 30 min",not inhibiting
same,Effect on [3H]hypoxanthine uptake by PfENT1-expressing oocytes,"[3]; 1 μM, P < 0.05",slight increase
same,IC50,[4],15.2 ± 1.9 µM
same,Effect on transport of [3H]chloroquine via PfCRT,[5],not inhibiting
same,Toxicity in Malaria Box toxicity testing,[6],display toxicity in some assays
same,IC50,[7],0.049 ± 0.014 µM
same,Effect on L-[14C]lactate transport into control (non-injected) oocytes,[8],no changes
same,Inhibition of L-[14C]lactate influx,[9]; 0.5 μM,complete inhibition
same,Inhibition of L-[14C]lactate uptake,[9]; 2 μM,complete inhibition
same,IC50,[10],6.3 ± 0.9 µM
same,IC50,[11],59.7 ± 1.4 µM
same,Lactate-induced abrupt acidification of parasite cytosol after pre-treatment,"[12]; 2.5 μM pre-treatment, 10 mM L-lactate, 4°C",no such abrupt acidification
same,Rate of cytosolic acidification after addition of lactate,"[12]; 2.5 μM, 4°C, 10 mM L-lactate, mean ± SEM, n = 3",0.015 ± 0.006 pH unit/min
same,Rate of cytosolic acidification before addition of lactate,"[12]; 2.5 μM, 4°C, mean ± SEM, n = 3",0.012 ± 0.003 pH unit/min
same,Cytosolic pH restored after restoration of glucose,"[12]; 2.5 μM, glucose (22 mM) restored to glucose-deprived parasites, gradual alkalinisation after initial acidification of ~2 min",approximately 7.1
same,Effect on cytosolic pH in glucose-containing medium,"[12]; glucose-containing medium, 37°C (Fig 2B,C: 1 μM)",cytosolic acidification
same,IC50,"[13]; MMV007839-selected culture A, mean ± SEM, read-out: IC50 value, growth inhibition",59.6 ± 0.4 µM
same,Fold increase of growth IC50 relative to Dd2 parent,[13]; both MMV007839-selected cultures (A and B) vs Dd2 parent,> 30 fold
same,IC50,[14],1.8 ± 0.2 µM
